According to patent US10155021B2, “Antimicrobial 4-oxoquinolizines” (Emergent Product Development Gaithersburg Inc., priority 2011, dated 2018):
Converted amounts (≈) assume the structure as drawn. Read-outs that look alike come from different tables or passages of the source.

How the values were obtained:
B. thailandensis E264 = assay: microbe, parasite or virus in culture; format: cell-based, Burkholderia thailandensis; conditions: for MIC: Burkholderia thailandensis, E264, read-out: MIC B. thailandensis E264
[1] = tested on: S. aureus ATCC 43300 (MRSA, FQ-S); assay: MIC, selected panel of Gram-positive and Gram-negative strains (Example 5); format: cell-based, Staphylococcus aureus
[2] = tested on: S. aureus BAA-1556 (USA300-Type MRSA, FQ-R); assay: as above; format: cell-based, Staphylococcus aureus
S. aureus ATCC 25923 = assay: as above; format: cell-based; conditions: Staphylococcus aureus, ATCC25923, read-out: MIC S. aureus ATCC 25923
P. aeruginosa ATCC 27853 = assay: as above; format: cell-based
A. baumannii ATCC 19606 = assay: as above; format: cell-based, Acinetobacter baumannii; conditions: for MIC: Acinetobacter baumannii, ATCC19606, read-out: MIC A. baumannii ATCC 19606
E. coli ATCC 25922 = assay: as above; format: cell-based, Escherichia coli
[3] = Staphylococcus aureus, read-out: MIC S. aureus ATCC 43300 (MRSA, FQ-S)
[4] = Staphylococcus aureus, read-out: MIC S. aureus BAA-1556 (USA300-Type MRSA, FQ-R)
[5] = Pseudomonas aeruginosa, ATCC27853, read-out: MIC P. aeruginosa ATCC 27853
[6] = Escherichia coli, ATCC25922, read-out: MIC E. coli ATCC 25922
[7] = Staphylococcus aureus; read-out: MIC S. aureus BAA-1556 (USA300-Type MRSA, FQ-R)

SMILES	MIC (B. thailandensis E264) [µg/mL]	MIC [1, 3] [µg/mL]	MIC [2, 4] [µg/mL]	MIC (S. aureus ATCC 25923) [µg/mL]	MIC (P. aeruginosa ATCC 27853; [5]) [µg/mL]	MIC (A. baumannii ATCC 19606) [µg/mL]	MIC (E. coli ATCC 25922; [6]) [µg/mL]	also measured
Cc1cn2c(=O)c(C(=O)[O-])cc(C3CC3)c2c(C)c1-c1ccc2[nH]ncc2c1.[K+] [Compound 88K salt, potassium 8-(1H-indazol-5-yl)-1-cyclopropyl-7,9-dimethyl-4-oxo-4H-quinolizine-3-carboxylate]	1	0.008	0.5	0.008	4	0.5	–	–
CNc1ccc(-c2ccn3c(=O)c(C(=O)[O-])cc(C4CC4)c3c2C)cc1C.[K+] [Compound 69K salt, potassium 8-(3-methyl-4-(methylamino)phenyl)-1-cyclopropyl-9-methyl-4-oxo-4H-quinolizine-3-carboxylate]	1	≤ 0.004	0.25	≤ 0.004	4	0.25 to 0.5	–	–
Cc1c(-c2ccc(CN)s2)ccn2c(=O)c(C(=O)[O-])cc(C3CC3)c12.[K+] [Compound 13K salt, potassium 8-(5-(aminomethyl)thiophen-2-yl)-1-cyclopropyl-9-methyl-4-oxo-4H-quinolizine-3-carboxylate]	0.5	0.016	0.5	0.016	1	–	0.016	–
CNc1ccc(-c2ccn3c(=O)c(C(=O)[O-])cc(C4CC4)c3c2C)cn1.[K+] [Compound 78K salt, potassium 8-(6-(methylamino)pyridin-3-yl)-1-cyclopropyl-9-methyl-4-oxo-4H-quinolizine-3-carboxylate]	0.5	0.008	–	0.008	2	–	0.064 to 0.125	–
CC(=O)NCc1ccc(-c2ccn3c(=O)c(C(=O)[O-])cc(C4CC4)c3c2C)cc1.[K+] [Compound 64K salt, potassium 8-(4-(Acetamidomethyl)phenyl)-1-cyclopropyl-9-methyl-4-oxo-4H-quinolizine-3-carboxylate]	2	0.032	0.5	0.032	8	0.5	–	–
O=C(O)c1cn(C2CC2)c2cc(N3CCNCC3)c(F)cc2c1=O [Ciprofloxacin, reference compound]	–	–	–	–	–	–	–	MIC [2, 7]: > 8 µg/mL
COc1c(-c2ccc(N)nc2)ccn2c(=O)c(C(=O)[O-])cc(C3CC3)c12.[K+] [Compound 89K salt, potassium 8-(6-amino-pyridin-3-yl)-1-cyclopropyl-9-methoxy-4-oxo-4H-quinolizine-3-carboxylate]	4	0.032	2	0.032	8	0.5	–	–
Cc1c(-c2ccc(CN)cc2)c(F)cn2c(=O)c(C(=O)[O-])cc(C3CC3)c12.[K+] [Compound 6K salt]	–	–	–	–	–	–	–	MIC B. thailandensis E264 (B. thailandensis E264): 4 µg/mL; MIC S. aureus ATCC 43300 (MRSA, FQ-S) [1]: 0,064 μg/mL; MIC S. aureus BAA-1556 (USA300-Type MRSA, FQ-R) [2]: 1 µg/mL; MIC A. baumannii ATCC 19606 (A. baumannii ATCC 19606): 1 µg/mL; MIC E. coli ATCC 25922 (E. coli ATCC 25922): 0.064 to 0.125 µg/mL
Cc1c(-c2ccc(O)cc2)c(F)cn2c(=O)c(C(=O)[O-])cc(C3CC3)c12.[K+] [Compound 61K salt, potassium 8-(4-hydroxyphenyl)-1-cyclopropyl-7-fluoro-9-methyl-4-oxo-4H-quinolizine-3-carboxylate]	0.5	–	0.064	–	2	–	0.032	–
Cc1c(-c2ccc(N3CCNCC3)nc2)ccn2c(=O)c(C(=O)[O-])cc(C3CC3)c12.[K+] [Compound 84K salt, potassium 8-(6-(piperazin-1-yl)pyridin-3-yl)-1-cyclopropyl-9-methyl-4-oxo-4H-quinolizine-3-carboxylate]	8	–	2	–	8	2	0.125 to 0.25	–
Cc1c(-c2ccc(O)c(F)c2)ccn2c(=O)c(C(=O)[O-])cc(C3CC3)c12.[K+] [Compound 70K salt, potassium 8-(3-fluoro-4-hydroxyphenyl)-1-cyclopropyl-9-methyl-4-oxo-4H-quinolizine-3-carboxylate]	0.25	≤ 0.004	0.064	≤ 0.004	1	–	0.032	–
Cc1cc(-c2ccn3c(=O)c(C(=O)[O-])cc(C4CC4)c3c2C)cnc1N.[K+] [Compound 79K salt, potassium 8-(6-amino-5-methylpyridin-3-yl)-1-cyclopropyl-9-methyl-4-oxo-4H-quinolizine-3-carboxylate]	0.5	≤ 0.004	–	≤ 0.004	2	0.064	0.016	–
Cc1cn2c(=O)c(C(=O)[O-])cc(C3CC3)c2c(C)c1-c1ccc(N)nc1.[K+] [Compound 87K salt, potassium 8-(6-amino-pyridin-3-yl)-1-cyclopropyl-7,9-dimethyl-4-oxo-4H-quinolizine-3-carboxylate]	4	0.064	8	0.064	8	0.25	–	–
Cc1c(C2=CCNCC2)c(F)cn2c(=O)c(C(=O)[O-])cc(C3CC3)c12.[K+] [Compound 62K salt, potassium 8-(1,2,3,6-tetrahydropyridin-4-yl)-1-cyclopropyl-7-fluoro-9-methyl-4-oxo-4H-quinolizine-3-carboxylate]	2	–	4	0.25	1	1	0.032	–
COc1c(-c2ccc3[nH]ncc3c2)ccn2c(=O)c(C(=O)[O-])cc(C3CC3)c12.[K+] [Compound 90K salt, potassium 8-(1H-indazol-5-yl)-1-cyclopropyl-9-methoxy-4-oxo-4H-quinolizine-3-carboxylate]	2	0.008	0.25	0.008	4	0.5	–	–
Cc1c(-c2cccc(O)c2)ccn2c(=O)c(C(=O)[O-])cc(C3CC3)c12.[K+] [Compound 56K salt, potassium 1-cyclopropyl-8-(3-hydroxyphenyl)-9-methyl-4-oxo-4H-quinolizine-3-carboxylate]	0.25	0.008	–	0.008	2	–	0.032	–
Cc1c(-c2ccc3c(cnn3C)c2)ccn2c(=O)c(C(=O)[O-])cc(C3CC3)c12.[K+] [Compound 81K salt, potassium 8-(1-methyl-1H-indazol-5-yl)-1-cyclopropyl-9-methyl-4-oxo-4H-quinolizine-3-carboxylate]	0.25	≤ 0.004	0.064	≤ 0.004	2	–	0.064	–
COc1cc(-c2ccn3c(=O)c(C(=O)[O-])cc(C4CC4)c3c2C)ccc1O.[K+] [Compound 66K salt, potassium 8-(4-hydroxy-3-methoxyphenyl)-1-cyclopropyl-9-methyl-4-oxo-4H-quinolizine-3-carboxylate]	1	0.008	0.25	0.008	4	0.5	–	–
Cc1c(-c2ccc3sc(N)nc3c2)ccn2c(=O)c(C(=O)[O-])cc(C3CC3)c12.[K+] [Compound 73K salt, potassium 8-(2-aminobenzo[d]thiazol-5-yl)-1-cyclopropyl-9-methyl-4-oxo-4H-quinolizine-3-carboxylate]	0.5	≤ 0.004	0.064	≤ 0.004	2	–	0.032	–
Cc1c(-c2ccc3[nH]nc(C4CC4)c3c2)ccn2c(=O)c(C(=O)[O-])cc(C3CC3)c12.[K+] [Compound 71K salt, potassium 8-(3-cyclopropyl-1H-indazol-5-yl)-1-cyclopropyl-9-methyl-4-oxo-4H-quinolizine-3-carboxylate]	2	≤ 0.004	–	≤ 0.004	> 8	0.5	–	–
Cc1n[nH]c2ccc(-c3ccn4c(=O)c(C(=O)[O-])cc(C5CC5)c4c3C)cc12.[K+] [Compound 80K salt, potassium 8-(3-methyl-1H-indazol-5-yl)-1-cyclopropyl-9-methyl-4-oxo-4H-quinolizine-3-carboxylate]	1	≤ 0.004	–	≤ 0.004	4	0.25	0.064	–
Cc1c(-c2ccc3c(c2)CCN3)ccn2c(=O)c(C(=O)[O-])cc(C3CC3)c12.[K+] [Compound 77K salt, potassium 8-(indolin-5-yl)-1-cyclopropyl-9-methyl-4-oxo-4H-quinolizine-3-carboxylate]	1	0.016	0.5	0.016	4	0.25	–	–
C[C@H]1c2cccc(O)c2C(=O)C2=C(O)[C@]3(O)C(=O)C(C(N)=O)=C(O)[C@@H](N(C)C)[C@@H]3[C@@H](O)[C@@H]21 [Doxycycline, reference compound]	2 (≈ 4.5 µM)	–	–	–	–	–	–	MIC ([1]; Staphylococcus aureus; read-out: MIC S. aureus ATCC 43300 (MRSA, FQ-S)): 0.25 µg/mL (≈ 0.563 µM); MIC [2, 7]: 4 µg/mL (≈ 9 µM); MIC (P. aeruginosa ATCC 27853; Pseudomonas aeruginosa, ATCC27853; read-out: MIC P. aeruginosa ATCC 27853): > 8 µg/mL; MIC (E. coli ATCC 25922; Escherichia coli, ATCC25922; read-out: MIC E. coli ATCC 25922): 1 µg/mL (≈ 2.25 µM)
